# Assay results taken from patent US20260139254A1, “INTERFERING RNA FOR INHIBITING TOP1 GENE EXPRESSION AND USE THEREOF” (JENKEM TECHNOLOGY CO., LTD. (BEIJING), priority 2022, published 2026).
# pIC50: −log10 of the molar value.
# What was measured:
# Type in all cases: cell-based, human
# [1] = tested on: A375 melanoma cells; assay: Inhibition of A375 cell proliferation by siTOP1 (CCK-8); details: A375, siRNA 50 nM, 72 h
# Description: • 1) On the day before transfection, A375 melanoma cells were seeded into a 96-well plate at 2500-3000 cells/well, the culture medium being a total volume of 200 μL of DMEM culture medium containing 7.5% FBS and 1% Penicillin-Streptomycin, and the plate was placed in an incubator with 5% CO2 at 37° C. for 24 h to allow the cells to adhere to the wall. 5 replicate wells were made for each group. • 2) On the day of transfection, the culture medium was changed to 90 μL of reduced serum culture medium without antibiotics and containing 7.5% FBS. • 3) The siRNAs were diluted with an appropriate amount of Opti-MEM culture medium; Lipofectamine™ RNAiMAX (Lipo) transfection reagent was diluted with another appropriate amount of Opti-MEM culture medium and left to stand at room temperature for 5 min; and the two dilutions were uniformly mixed and left to stand at room temperature for 5 min. • 4) 10 μL of the mixed solution described above was added to each well to obtain a final transfection volume of 100 μL, and the working concentration of the siRNA was 50 nM. • 5) The cells were cultured in the incubator with 5% CO2 at 37° C. for 72 h.
# After 72 h of transfection, 10 μL of CCK-8 solution was added to each well, and the cells were cultured in the incubator with 5% CO2 at 37° C. for another 4 h. The absorbance value at 450 nm was measured using a microplate reader. Cell viability was calculated according to the following formula: […]
# [2] = tested on: TOP1 mRNA; assay: Dose-dependence of siTOP1-1604 on TOP1 mRNA in HCT116 cells (qPCR); details: for Relative expression level of TOP1, mean value: 24 h, siNC = 100.00
# Description: (§1) A transfection system was prepared as follows on the day of transfection: siTOP1-1604 was diluted with an appropriate amount of Opti-MEM culture medium; Lipofectamine™ RNAiMAX (Lipo) transfection reagent was diluted with another appropriate amount of Opti-MEM culture medium and left to stand at room temperature for 5 min; and the two dilutions were uniformly mixed, left to stand at room temperature for 5 min, and then added to 24-well cell culture plates at 50 μL/well. PC-3 human prostate cancer cells were added to one of the 24-well cell culture plates at 4×10^5 cells/well, the culture medium being 450 μL of F12K containing 10% FBS; HCT116 human colon cancer cells were added to the other of the 24-well cell culture plates at 3.5×10^5 cells/well, the culture medium being 450 μL of IMDM containing 10% FBS. The cells were uniformly mixed with the siRNA. The final transfection volume was 500 μL, and the working concentrations of the siRNA were 10, 1.67, 0.27, 0.046, 0.0077, 0.0013, and 0.00021 nM. The control groups were Blank (Opti-MEM at the equal volume), Lipofectamine™ RNAiMAX (Lipo) transfection reagent, as well as 10 nM of siNC.
# (§2) After 24 h of transfection, the cells were collected. The total cellular RNA was extracted according to the method in Example 2, and the level of TOP1 mRNA was detected. […] Nonlinear fitting was performed on the qPCR results using Graphpad software and IC50 of siTOP1 was calculated.
# [3] = tested on: TOP1 mRNA; assay: Inhibitory effects of modified sequences of siTOP1-1604 on TOP1 mRNA in PC-3 cells; details: PC-3, siRNA 50 nM, 48 h after transfection, Blank = 100.00
# Description: PC-3 human prostate cancer cells were transfected with the modified siTOP1 according to the method in Example 2 at a siRNA working concentration of 50 nM. TOP1 mRNA levels were detected 48 h after the transfection. The control groups were Blank (Opti-MEM at the equal volume), Lipofectamine™ RNAiMAX (Lipo) transfection reagent, and the positive control unmodified siTOP-1604.
# [4] = tested on: TOP1 mRNA; assay: Dose-dependence of siTOP1-1604 on TOP1 mRNA in PC-3 cells (qPCR); details: for Relative expression level of TOP1, mean value: 24 h, siNC = 100.00
# Description: as §1, §2
substance,measurement,setting,value
"siTOP1-1604: siRNA targeting TOP1; target SEQ ID NO: 9, sense strand SEQ ID NO: 24, antisense strand SEQ ID NO: 39 (sense GUGUGGACAAGAUCCGGAAUU; antisense UUCCGGAUCUUGUCCACACUU; described as unmodified parent siRNA, further chemistry not given here)","Cell viability (%), mean value",[1],41.65%
same,Inhibition of A375 cell proliferation compared to Blank,[1],about 58%
same,"Relative expression level of TOP1, mean value","[2]; HCT116, 0.00021 nM",73.06
same,"Relative expression level of TOP1, mean value","[2]; HCT116, 0.0013 nM",74.72
same,"Relative expression level of TOP1, mean value","[2]; HCT116, 0.0077 nM",54.01
same,"Relative expression level of TOP1, mean value","[2]; HCT116, 0.046 nM",17.23
same,"Relative expression level of TOP1, mean value","[2]; HCT116, 0.27 nM",7.57
same,"Relative expression level of TOP1, mean value","[2]; HCT116, 1.67 nM",7.91
same,"Relative expression level of TOP1, mean value","[2]; HCT116, 10 nM",3.98
same,pIC50,"[2]; HCT116, 24 h, relative to siNC, nonlinear fit of qPCR results",11.22
same,"Relative expression level, mean value",[3],4.03
same,"Relative expression level of TOP1, mean value","[4]; PC-3, 0.00021 nM",125.48
same,"Relative expression level of TOP1, mean value","[4]; PC-3, 0.0013 nM",96.21
same,"Relative expression level of TOP1, mean value","[4]; PC-3, 0.0077 nM",122.71
same,"Relative expression level of TOP1, mean value","[4]; PC-3, 0.046 nM",47.64
same,"Relative expression level of TOP1, mean value","[4]; PC-3, 0.27 nM",24.94
same,"Relative expression level of TOP1, mean value","[4]; PC-3, 1.67 nM",21.05
same,"Relative expression level of TOP1, mean value","[4]; PC-3, 10 nM",19.66
same,pIC50,"[4]; PC-3, 24 h, relative to siNC, nonlinear fit of qPCR results",10.12
